Reference: the NIST ThermoML archive (doi:10.1016/j.tca.2008.05.002)

Experiment: molar heat capacity at saturation pressure
Details: Small (less than 1 g) adiabatic calorimetry

CCCCn1cc[n+](C)c1.O=[N+]([O-])[O-] [1-butyl-3-methylimidazolium nitrate]
Details	molar heat capacity [J/K/mol]
223.56 K, Crystal 4	239.25
224.66 K, Crystal 4	240.26
225.64 K, Crystal 4	241.27
226.74 K, Crystal 4	242.07
227.72 K, Crystal 4	243.28
228.81 K, Crystal 4	244.08
229.79 K, Crystal 4	245.29
230.88 K, Crystal 4	246.1
231.86 K, Crystal 4	247.3
232.95 K, Crystal 4	248.31
233.92 K, Crystal 4	249.32
235.01 K, Crystal 4	250.32
235.97 K, Crystal 4	251.53
237.06 K, Crystal 4	252.54
238.03 K, Crystal 4	253.54
239.1 K, Crystal 4	254.75
239.2 K, Crystal 4	254.95
240.07 K, Crystal 4	255.55
241.14 K, Crystal 4	256.96
241.7 K, Crystal 4	257.57
242.11 K, Crystal 4	257.77
243.17 K, Crystal 4	259.18
244.08 K, Crystal 4	260.18
244.15 K, Crystal 4	259.98
245.2 K, Crystal 4	261.39
246.17 K, Crystal 4	262.6
246.45 K, Crystal 4	262.8
247.22 K, Crystal 4	263.8
248.19 K, Crystal 4	265.01
248.81 K, Crystal 4	265.61
249.23 K, Crystal 4	266.42
250.2 K, Crystal 4	267.63
251.15 K, Crystal 4	268.43
251.23 K, Crystal 4	269.04
252.21 K, Crystal 4	270.04
253.23 K, Crystal 4	271.45
253.48 K, Crystal 4	271.45
254.2 K, Crystal 4	272.66
255.22 K, Crystal 4	274.27
255.8 K, Crystal 4	274.87
256.19 K, Crystal 4	275.68
257.2 K, Crystal 4	277.29
258.1 K, Crystal 4	278.49
258.18 K, Crystal 4	278.49
259.18 K, Crystal 4	280.3
260.15 K, Crystal 4	281.51
260.4 K, Crystal 4	282.11
261.14 K, Crystal 4	283.32
262.11 K, Crystal 4	284.53
262.67 K, Crystal 4	286.14
263.1 K, Crystal 4	286.54
264.07 K, Crystal 4	287.95
264.94 K, Crystal 4	289.96
265.05 K, Crystal 4	289.56
266.02 K, Crystal 4	291.37
267 K, Crystal 4	293.79
267.19 K, Crystal 4	294.19
267.95 K, Crystal 4	295.4
268.93 K, Crystal 4	297.81
269.43 K, Crystal 4	299.02
269.88 K, Crystal 4	299.82
270.85 K, Crystal 4	302.44
271.65 K, Crystal 4	304.85
271.78 K, Crystal 4	304.65
271.8 K, Liquid	345.1
272.76 K, Crystal 4	307.47
273.68 K, Crystal 4	310.69
273.85 K, Crystal 4	312.1
274.46 K, Liquid	345.9
274.66 K, Crystal 4	313.71
275.56 K, Crystal 4	318.94
276.02 K, Crystal 4	318.54
276.35 K, Crystal 4	310.08
277.02 K, Liquid	346.71
277.33 K, Crystal 4	355.76
277.73 K, Crystal 4	345.5
277.82 K, Crystal 4	609.71
278.14 K, Crystal 4	322.56
278.16 K, Crystal 4	408.68
278.25 K, Crystal 4	455.57
278.82 K, Crystal 3	545.72
279.03 K, Crystal 3	470.06
279.41 K, Liquid	347.51
279.47 K, Crystal 3	414.92
279.88 K, Crystal 3	382.53
280.31 K, Crystal 3	308.07
280.95 K, Crystal 3	310.08
281.81 K, Liquid	348.32
281.84 K, Crystal 3	313.91
281.86 K, Crystal 3	314.31
282.47 K, Crystal 3	319.54
283.34 K, Crystal 3	324.98
283.95 K, Crystal 3	333.43
284.03 K, Crystal 3	333.23
284.21 K, Liquid	349.12
284.81 K, Crystal 3	341.48
285.42 K, Crystal 3	355.56
286.1 K, Crystal 3	372.26
286.25 K, Crystal 3	363.41
286.61 K, Liquid	349.93
286.8 K, Crystal 3	390.78
287.64 K, Crystal 3	372.26
288.03 K, Crystal 3	432.83
288.12 K, Crystal 2	417.54
289.01 K, Liquid	350.73
289.03 K, Crystal 2	359.38
289.45 K, Crystal 2	366.43
289.95 K, Crystal 2	362.2
290.42 K, Crystal 2	367.43
290.84 K, Crystal 2	370.25
291.41 K, Liquid	351.54
291.75 K, Crystal 2	425.39
291.98 K, Crystal 2	378.5
292.18 K, Crystal 2	416.33
293 K, Crystal 1	432.03
293.5 K, Crystal 1	380.51
293.81 K, Liquid	352.34
293.98 K, Crystal 1	378.1
294.33 K, Crystal 1	377.9
294.87 K, Crystal 1	383.53
295.97 K, Crystal 1	397.01
296.14 K, Crystal 1	399.03
296.21 K, Liquid	353.15
296.66 K, Crystal 1	410.29
297.89 K, Crystal 1	432.63
298.32 K, Crystal 1	442.09
298.61 K, Liquid	353.95
298.79 K, Crystal 1	458.19
299.7 K, Crystal 1	486.36
300.51 K, Crystal 1	519.76
300.77 K, Crystal 1	538.67
301.01 K, Liquid	354.76
301.36 K, Crystal 1	572.08
302.38 K, Crystal 1	652.97
302.52 K, Crystal 1	675.3
302.83 K, Crystal 1	708.51
303.42 K, Liquid	355.76
303.87 K, Crystal 1	876.13
303.98 K, Crystal 1	909.13
304.08 K, Crystal 1	926.83
305.82 K, Liquid	356.57
308.22 K, Liquid	357.37
310.14 K, Liquid	358.38
310.4 K, Liquid	358.58
310.62 K, Liquid	358.38
311.19 K, Liquid	358.58
312.54 K, Liquid	359.18
313.02 K, Liquid	358.98
313.34 K, Liquid	359.18
314.75 K, Liquid	359.99
315.42 K, Liquid	360.19
315.54 K, Liquid	359.99
316.76 K, Liquid	360.59
317.74 K, Liquid	360.99
317.82 K, Liquid	360.99
318.76 K, Liquid	361.6
319.94 K, Liquid	361.8
320.21 K, Liquid	362
320.76 K, Liquid	362.4
322.14 K, Liquid	362.81
322.61 K, Liquid	363.01
322.77 K, Liquid	363.41
324.34 K, Liquid	363.61
324.77 K, Liquid	364.01
325.01 K, Liquid	363.81
326.54 K, Liquid	364.62
326.77 K, Liquid	364.62
327.41 K, Liquid	365.02
328.73 K, Liquid	365.22
328.78 K, Liquid	365.42
329.81 K, Liquid	365.82
330.78 K, Liquid	366.43
330.93 K, Liquid	366.23
332.2 K, Liquid	366.83
332.78 K, Liquid	367.23
333.12 K, Liquid	367.03
334.6 K, Liquid	367.84
334.78 K, Liquid	368.24
335.32 K, Liquid	367.84
336.78 K, Liquid	368.84
336.99 K, Liquid	368.64
337.51 K, Liquid	369.04
338.78 K, Liquid	369.65
339.71 K, Liquid	369.65
340.78 K, Liquid	370.45
341.9 K, Liquid	370.45
342.78 K, Liquid	371.46
344.09 K, Liquid	371.46
344.78 K, Liquid	372.26
346.29 K, Liquid	372.46
346.78 K, Liquid	373.27
348.48 K, Liquid	373.47
348.78 K, Liquid	374.07
350.68 K, Liquid	374.28
350.78 K, Liquid	374.88
352.78 K, Liquid	375.68
352.87 K, Liquid	375.48
354.78 K, Liquid	376.69
355.06 K, Liquid	376.29
356.78 K, Liquid	377.7
357.25 K, Liquid	377.49
358.78 K, Liquid	378.3
359.44 K, Liquid	378.3
360.77 K, Liquid	379.31
361.63 K, Liquid	379.31
363.82 K, Liquid	380.11
366.01 K, Liquid	381.12
368.19 K, Liquid	382.32
